# Assay results from patent US6974568B2, “Treatment for cough” (The Regents of the University of California, priority 2000, dated 2005).
# What was measured:
# [1] = test system: bronchial smooth muscle; assay: Bronchoconstriction in vagotomized, atropine-treated guinea pigs; format: in vivo, guinea pig; conditions: for bronchial muscle constriction, % of maximal bronchospasm: tracheal administration, n=6; for effect on anandamide bronchoconstriction in vivo: antagonist before anandamide
# [2] = test system: capsaicin-evoked bronchospasm; assay: Capsaicin-evoked bronchospasm in anesthetized guinea pigs; format: in vivo, guinea pig; conditions: for effect on capsaicin-evoked bronchospasm: administered systemically before capsaicin; for reversal of anandamide's inhibition of capsaicin-evoked bronchospasm: antagonist given with anandamide, SR141716A 0.5 mg per kg i.v., SR144528 0.3 mg per kg i.v. (maximal dose); for intrinsic effect on capsaicin-evoked bronchoconstriction: capsaicin via tracheal catheter or i.v., antagonist i.v.
# [3] = test system: capsaicin-evoked bronchospasm; assay: Capsaicin-evoked bronchospasm in anesthetized rats; format: in vivo, rat; conditions: n=3
# [4] = test system: guinea pig lung parenchyma strips; assay: Isolated lung strips, muscle contraction; conditions: for effect on anandamide bronchoconstriction in vitro: SR141716A 1 μM, lung strips
# Protocol: Guinea pig parenchimal strips were prepared essentially as described in Samhoun, M. N., et al. (1984) Prostaglandins, 27, 711-724. The strips were placed in 10-ml organ baths containing Krebs' buffer (in mM: NaCl, 118; KCl, 4; K2HPO4, 1.2; MgSO4, 1.2; CaCl2, 2.5; NaHCO3, 25.0; glucose, 11.2; supplemented with […] atropine sulfate and […] indomethacin) at 37° C. and aerated with an oxygen/carbon dioxide mixture (95/5%). Muscle contractions were recorded with an isometric force transducer (U. Basile) and expressed in dyne per mg of fresh tissue.
# [5] = test system: capsaicin-evoked cough; conditions: guinea pig, in vivo
# [6] = test system: bronchial smooth muscle; assay: Bronchoconstriction in vagotomized, atropine-treated rats; format: in vivo, rat; conditions: after vagotomy and atropine, n=3
# [7] = test system: bronchial smooth muscle; assay: Direct bronchomotor action in anesthetized animals with intact vagus; format: in vivo, guinea pig
# [8] = capsazepine 0.2 mg per kg, i.v.
compound,measurement,setting,value
CCCCCCC(C)(C)c1cc(O)c2c(c1)OC(C)(C)[C@@H]1CC=C(CO)C[C@@H]21 [HU210],"bronchial muscle constriction, % of maximal bronchospasm",[1]; 0.1 mg per animal,10.0±0.6%
same,"bronchial muscle constriction, % of maximal bronchospasm",[1]; 1 mg per animal,30±1.2%
same,"bronchial muscle constriction, % of maximal bronchospasm",[1]; 10 mg per animal,60±2.2%
same,"bronchial muscle constriction, % of maximal bronchospasm",[1]; 30 mg per animal,100%
Oc1cc2c(cc1O)CN(C(=S)NCCc1ccc(Cl)cc1)CCC2 [capsazepine],effect on anandamide-evoked bronchospasm,[1]; [8],had no effect
same,effect on the capsaicin response (bronchospasm),[2]; [8],completely prevented
COc1cc(CNC(=O)CCCC/C=C/C(C)C)ccc1O [capsaicin],"bronchospasm, % of maximal bronchospasm","[2]; capsaicin alone, i.v., n=3",55.3±8.2%
same,"bronchospasm, % of maximal bronchospasm","[3]; capsaicin 30 mg per animal, intratracheal",55±12%
same,"bronchospasm, % of maximal bronchospasm","[3]; capsaicin 100 mg per animal, intratracheal",81±19%
same,"bronchospasm, % of maximal bronchospasm",[3]; capsaicin intratracheal alone (anandamide experiment),37.2±4.2%
same,"bronchospasm, % of maximal bronchospasm","[3]; capsaicin, intratracheal, mean±s.e.m.",41±6%
CCCCC/C=C\C/C=C\C/C=C\C/C=C\CCCC(=O)Nc1ccc(O)cc1 [N-(4-hydroxyphenyl)-arachidonamide],anandamide-evoked contraction of isolated lung strips,"[4]; anandamide 50 μM plus N-(4-hydroxyphenyl)-arachidonamide 28 μM, P<0.05, n=6",0.638±0.06 dyne/mg of tissue
"CCCCC/C=C\C/C=C\C/C=C\C/C=C\CCCC(=O)NCCO [anandamide, arachidonylethanolamide]",contraction of isolated lung strips,"[4]; anandamide 50 μM alone, n=6",0.336±0.07 dyne/mg of tissue
same,bronchomotor effect after vagotomy and atropine,"[1]; systemic application, guinea pigs",dose-dependent bronchoconstriction
same,visual signs of cannabinoid intoxication,[5],not accompanied by any visual signs of cannabinoid intoxication
same,"bronchoconstriction, % of maximal bronchospasm",[6]; 1 mg per kg i.v.,0±0%
same,"bronchoconstriction, % of maximal bronchospasm",[6]; 3 mg per kg i.v.,12±1.7%
same,"bronchoconstriction, % of maximal bronchospasm",[6]; 5 mg per kg i.v.,18.3±1.2%
same,"bronchoconstriction, % of maximal","[7]; 5 mg per kg (highest dose tested), mean±s.e.m., n=5",11.8±5.9%
same,direct bronchomotor action,"[7]; doses below the highest dose tested (5 mg per kg), species not given",no direct bronchomotor action
same,effect on capsaicin-evoked bronchospasm,[2],abrogated
same,"bronchospasm, % of maximal bronchospasm",[3]; capsaicin intratracheal after anandamide 1 mg per kg i.v.,14±7%
SR144528,effect on anandamide bronchoconstriction in vitro,[4],had no such effect
same,effect on anandamide bronchoconstriction in vivo,[1],had no such effect
same,intrinsic effect on capsaicin-evoked coughing,[5]; iv,had no such effects
same,reversal of anandamide's inhibition of capsaicin-evoked bronchospasm,[2],only slightly reduced
same,intrinsic effect on capsaicin-evoked bronchoconstriction,[2],had no such effects
Cc1c(C(=O)NN2CCCCC2)nn(-c2ccc(Cl)cc2Cl)c1-c1ccc(Cl)cc1 [SR141716A],effect on anandamide bronchoconstriction in vitro,[4],blocked
same,effect on anandamide bronchoconstriction in vivo,[1],blocked
same,effect of CB1 receptor blockade on anandamide's reduction of capsaicin-evoked cough,[5]; iv,abrogated
same,intrinsic effect on capsaicin-evoked coughing,[5]; iv,significantly enhanced
same,bronchomotor consequences per se,"[7]; antagonist alone, without capsaicin, guinea pigs",no bronchomotor consequences per se
same,reversal of anandamide's inhibition of capsaicin-evoked bronchospasm,[2],completely reversed
same,"bronchospasm, % of maximal bronchospasm","[2]; capsaicin i.v. after SR141716A 0.5 mg per kg i.v., P<0.05, n=3",92.3±3.4%
same,intrinsic effect on capsaicin-evoked bronchoconstriction,[2],significantly enhanced
CCCCCCCCCCCCCCCC(=O)NCCO [Palmitylethanolamide],effect on capsaicin-evoked bronchospasm,[2],ineffective
